Reference: patent US10822317B2, “Methods and compositions for wound healing” (QBiotics Limited, priority 2013, dated 2020)

Experiments:
[1] = system: chronic, non-healing wounds; experiment: Veterinary clinical treatment of non-healing and difficult wounds, 10 pet animals (overall); type: in vivo, dogs, tree kangaroos, spectacled flying fox; settings: eight completed cases; open wounds, no dressings
Procedure: Compound 1 has been used to treat to heal difficult wounds in 10 pet (i.e. privately owned and cared for) animals with the aim of improving second intention wound healing
Seven dogs (Canis lupus familiaris) and one tree kangaroo (Dendrolagus humholzii) with chronic, non-healing wounds that were unresponsive to current veterinary standards-of-care for these indications were treated with Compound 1 by independent veterinarians. A second tree kangaroo and a spectacled flying fox (Pteropus conspicillatus) with wounds unsuited for initial treatment with current standards-of-care were also treated with Compound 1. All cases were managed as open wounds without the use of dressings or other bandaging during the course of treatment with Compound 1 and the subsequent period of wound resolution. Unless stated in individual case studies, no concomitant medications were used over the course of treatments with Compound 1.
Case and treatment notes for each of these patients are summarised below. Note that the return presentation of these animals to the treating veterinarians was often irregular and wound healing outcomes may have occurred well before the return assessment visits.

[2] = system: immortalised human keratinocyte cells (HaCaT); experiment: Scratch repopulation and closure with HaCaT; type: cell-based; settings: 48 hrs; 0.001, 0.01 and 0.1 μg/ml; p<0.01
[3] = system: human neonatal fibroblast cells (NFFs); experiment: Western blot of signalling molecules in human neonatal fibroblasts; type: cell-based; settings: 10 or 30 ng/mL
Procedure: The Western Blot method was used to identify effects of Compounds 1 and 42 on proteins relevant to would repair and healing in human neonatal fibroblast cells (NFFs). Two studies were conducted. In the first study; NFFs were treated with either 10 or 30 ng Compound 1/mL for 6 or 24 hours, before harvesting and protein extraction. In the second study NFFs were treated individually with 30 ng/mL concentrations of Compounds 1 and 42 respectively for 6 hours. The resulting lysates from both studies were subjected to western blot analysis, and probing with specific antibodies to key signalling molecules involved in wound repair and healing.
The medium from adherent human neonatal fibroblasts grown in 75 cm^2 plates was removed and the cells were washed twice in ice cold PBS. The attached cells were harvested in 10 mL of ice cold PBS using a cell scraper (Costar, Corning) pelleted by centrifugation for 5 min (1,500 rpm, RTemp), resuspended in 1 mL of ice-cold PBS, and transferred to a 1.5 mL microfuge tube.
The cells were collected by centrifugation (13,200 rpm, RTemp, 2 s), the PBS removed and the pellets stored at −20° C. until required.
The frozen pellets were thawed on ice, and resuspended in a volume of cell lysis buffer 3-4 times the volume of the pellet by pipetting up and down. The cell suspension was sonicated 60 s at 4° C. and centrifuged for 20 min (13,200 rpm, 4° C.) and the […] containing the protein transferred to a fresh 1.5 ml microfuge tube. The protein was stored at −20° C.
Protein samples were diluted 1/10 and 1/20 (v/v) in MilliQ water and 10 μL was plated out in duplicate in. a flat-bottomed 96-well plate (Costar®, Corning). Stock solutions of bovine serum albumin (BSA) were prepared at 100, 200, 400, 600, 1,000, and 1,200 μg/mL and 10 μL/well plated out in duplicate and assayed alongside the samples. […] The raw absorbances were read at A590 nm on a microplate reader (VERSAmax, Molecular Devices) and a standard curve produced using SOFTmax PRO software (Molecular Devices). […]

For `CC=C(C)C(=O)OC1C(C)C2(O)C(C3OC3(CO)C(O)C3(O)C(=O)C(C)=CC32)C2C(C)(C)C12OC(=O)C(C)CC` (centres unmarked) [Compound 1, 12-tigloyl-13-(2-methylbutanoyl)-6,7-epoxy-4,5,9,12,13,20-hexahydroxy-1-tigliaen-3-one], the wound resolution [1] was “effective wound resolution with minimal scarring”, the “rate of scratch closure compared to the control treatment” value [2] was “significantly increased” and the “levels of MMP9 (Western blot)” value ([3]; 6 or 24 hours) was “No difference”. The “activation of MEK1/2 and ERK/2 (Western blot)” value ([3]; 6 hours) was “transient activation” and the “activation of MEK1/2 and ERK/2 (Western blot)” value ([3]; 24 hours) was “down-regulation of activation”.
